Measured values as given in ChEMBL document CHEMBL4665764, “Synthesis and Biological Evaluation of Celastrol Derivatives as Potential Immunosuppressive Agents” (J Nat Prod, 2020).

Experiments:
[1] = Cytotoxicity against BALB/c mouse T cell assessed as reduction in cell viability after 48 hrs by CCK8 assay; format: tissue-based, T cell line; settings: BALB/c mouse T cells
[2] = Selectivity index, ratio of CC50 for cytotoxicity against BALB/c mouse T cell to IC50 for antiproliferative activity against Con A-induced BALB/c mouse T cell; design: species or system T cell line
[3] = Antiproliferative activity against Con A-induced BALB/c mouse T cell after 48 hrs by CCK8 assay; format: functional, tissue-based, T cell line

Structure (SMILES): CC1=C(O)C(=O)C=C2C1=CC=C1[C@@]2(C)CC[C@@]2(C)[C@@H]3C[C@](C)(C(=O)OCc4cccc(Br)c4)CC[C@]3(C)CC[C@]12C
- CC50 at 48 h [1]: 1800 nM
- Ratio CC50/IC50 [2]: 1.7
- IC50 [3]: 1070 nM

Structure (SMILES): CC1=C(O)C(=O)C=C2C1=CC=C1[C@@]2(C)CC[C@@]2(C)[C@@H]3C[C@](C)(C(=O)On4nnc5ccccc54)CC[C@]3(C)CC[C@]12C
- CC50 at 48 h [1]: 15100 nM
- Ratio CC50/IC50 [2]: 8.1
- IC50 [3]: 1880 nM

Structure (SMILES): CC1=C(O)C(=O)C=C2C1=CC=C1[C@@]2(C)CC[C@@]2(C)[C@@H]3C[C@](C)(C(=O)OCc4ccccc4Br)CC[C@]3(C)CC[C@]12C
- CC50 at 48 h [1]: 1800 nM
- Ratio CC50/IC50 [2]: 1.1
- IC50 [3]: 1550 nM

Structure (SMILES): CC1=C(O)C(=O)C=C2C1=CC=C1[C@@]2(C)CC[C@@]2(C)[C@@H]3C[C@](C)(C(=O)NCCN(C)C)CC[C@]3(C)CC[C@]12C
- CC50 at 48 h [1]: 1200 nM
- Ratio CC50/IC50 [2]: 5.5
- IC50 [3]: 225 nM

Structure (SMILES): C#CCOC(=O)[C@]1(C)CC[C@]2(C)CC[C@]3(C)C4=C[C@@H](c5c[nH]c6ccc(C)cc56)c5c(cc(OC(C)=O)c(OC(C)=O)c5C)[C@]4(C)CC[C@@]3(C)[C@@H]2C1
- CC50 at 48 h [1]: ≥ 10000 nM
- IC50 [3]: ≥ 10000 nM

Structure (SMILES): CC1=C(O)C(=O)C=C2C1=CC=C1[C@@]2(C)CC[C@@]2(C)[C@@H]3C[C@](C)(C(=O)OCc4ccccc4C)CC[C@]3(C)CC[C@]12C
- CC50 at 48 h [1]: 1700 nM
- Ratio CC50/IC50 [2]: 1.6
- IC50 [3]: 1040 nM

Structure (SMILES): CC1=C(O)C(=O)C=C2C1=CC=C1[C@@]2(C)CC[C@@]2(C)[C@@H]3C[C@](C)(C(=O)OCc4ccc(C(F)(F)F)cc4)CC[C@]3(C)CC[C@]12C
- CC50 at 48 h [1]: 6700 nM
- Ratio CC50/IC50 [2]: 1.4
- IC50 [3]: 4870 nM

Structure (SMILES): CCCCOC(=O)[C@]1(C)CC[C@]2(C)CC[C@]3(C)C4=CC=C5C(=CC(=O)C(O)=C5C)[C@]4(C)CC[C@@]3(C)[C@@H]2C1
- CC50 at 48 h [1]: 900 nM
- Ratio CC50/IC50 [2]: 1.2
- IC50 [3]: 739 nM

Structure (SMILES): CCCNC(=O)[C@]1(C)CC[C@]2(C)CC[C@]3(C)C4=CC=C5C(=CC(=O)C(O)=C5C)[C@]4(C)CC[C@@]3(C)[C@@H]2C1
- CC50 at 48 h [1]: 1100 nM
- Ratio CC50/IC50 [2]: 16.5
- IC50 [3]: 64 nM

Structure (SMILES): CC1=C(O)C(=O)C=C2C1=CC=C1[C@@]2(C)CC[C@@]2(C)[C@@H]3C[C@](C)(C(=O)OCc4ccccc4)CC[C@]3(C)CC[C@]12C
- CC50 at 48 h [1]: 1100 nM
- Ratio CC50/IC50 [2]: 1
- IC50 [3]: 1060 nM

Structure (SMILES): C#CCOC(=O)[C@]1(C)CC[C@]2(C)CC[C@]3(C)C4=C[C@@H](c5c[nH]c6ccccc56)c5c(cc(OC(C)=O)c(OC(C)=O)c5C)[C@]4(C)CC[C@@]3(C)[C@@H]2C1
- CC50 at 48 h [1]: ≥ 10000 nM
- IC50 [3]: ≥ 10000 nM

Structure (SMILES): CC1=C(O)C(=O)C=C2C1=CC=C1[C@@]2(C)CC[C@@]2(C)[C@@H]3C[C@](C)(C(=O)OCc4ccc(F)cc4)CC[C@]3(C)CC[C@]12C
- CC50 at 48 h [1]: 2000 nM
- Ratio CC50/IC50 [2]: 1.4
- IC50 [3]: 1460 nM

Structure (SMILES): CC1=C(O)C(=O)C=C2C1=CC=C1[C@@]2(C)CC[C@@]2(C)[C@@H]3C[C@](C)(C(=O)N4CCCC4)CC[C@]3(C)CC[C@]12C
- CC50 at 48 h [1]: 1900 nM
- Ratio CC50/IC50 [2]: 3.4
- IC50 [3]: 323 nM

Structure (SMILES): COCCOC(=O)[C@]1(C)CC[C@]2(C)CC[C@]3(C)C4=CC=C5C(=CC(=O)C(O)=C5C)[C@]4(C)CC[C@@]3(C)[C@@H]2C1
- CC50 at 48 h [1]: 1300 nM
- Ratio CC50/IC50 [2]: 2.8
- IC50 [3]: 454 nM

Structure (SMILES): C#CCOC(=O)[C@]1(C)CC[C@]2(C)CC[C@]3(C)C4=C[C@@H](c5c[nH]c6cc(Cl)ccc56)c5c(cc(OC(C)=O)c(OC(C)=O)c5C)[C@]4(C)CC[C@@]3(C)[C@@H]2C1
- CC50 at 48 h [1]: 4100 nM
- IC50 [3]: ≥ 10000 nM

Structure (SMILES): CC1=C(O)C(=O)C=C2C1=CC=C1[C@@]2(C)CC[C@@]2(C)[C@@H]3C[C@](C)(C(=O)NCc4ccccc4)CC[C@]3(C)CC[C@]12C
- CC50 at 48 h [1]: 800 nM
- Ratio CC50/IC50 [2]: 2.1
- IC50 [3]: 362 nM

Structure (SMILES): C#CCOC(=O)[C@]1(C)CC[C@]2(C)CC[C@]3(C)C4=C[C@@H](c5c[nH]c6cc(OC)ccc56)c5c(cc(OC(C)=O)c(OC(C)=O)c5C)[C@]4(C)CC[C@@]3(C)[C@@H]2C1
- CC50 at 48 h [1]: 3000 nM
- IC50 [3]: ≥ 10000 nM

Structure (SMILES): CC1=C(O)C(=O)C=C2C1=CC=C1[C@@]2(C)CC[C@@]2(C)[C@@H]3C[C@](C)(C(=O)NC(C)C)CC[C@]3(C)CC[C@]12C
- CC50 at 48 h [1]: 800 nM
- Ratio CC50/IC50 [2]: 6.9
- IC50 [3]: 83 nM

Structure (SMILES): C#CCOC(=O)[C@]1(C)CC[C@]2(C)CC[C@]3(C)C4=CC=C5C(=CC(=O)C(O)=C5C)[C@]4(C)CC[C@@]3(C)[C@@H]2C1
- CC50 at 48 h [1]: 1400 nM
- Ratio CC50/IC50 [2]: 1.3
- IC50 [3]: 1120 nM

Structure (SMILES): CC1=C(O)C(=O)C=C2C1=CC=C1[C@@]2(C)CC[C@@]2(C)[C@@H]3C[C@](C)(C(=O)NCc4cccc(C)c4)CC[C@]3(C)CC[C@]12C
- CC50 at 48 h [1]: 1000 nM
- Ratio CC50/IC50 [2]: 3.4
- IC50 [3]: 294 nM

Structure (SMILES): C=CCOC(=O)[C@]1(C)CC[C@]2(C)CC[C@]3(C)C4=CC=C5C(=CC(=O)C(O)=C5C)[C@]4(C)CC[C@@]3(C)[C@@H]2C1
- CC50 at 48 h [1]: 1300 nM
- Ratio CC50/IC50 [2]: 1.1
- IC50 [3]: 1180 nM

Structure (SMILES): CC1=C(O)C(=O)C=C2C1=CC=C1[C@@]2(C)CC[C@@]2(C)[C@@H]3C[C@](C)(C(=O)OCC4CCCCC4)CC[C@]3(C)CC[C@]12C
- CC50 at 48 h [1]: 1300 nM
- Ratio CC50/IC50 [2]: 1
- IC50 [3]: 1260 nM

Structure (SMILES): C#CCOC(=O)[C@]1(C)CC[C@]2(C)CC[C@]3(C)C4=C[C@@H](c5c[nH]c6ccc(Cl)cc56)c5c(cc(OC(C)=O)c(OC(C)=O)c5C)[C@]4(C)CC[C@@]3(C)[C@@H]2C1
- CC50 at 48 h [1]: ≥ 10000 nM
- IC50 [3]: ≥ 10000 nM

Structure (SMILES): CC1=C(O)C(=O)C=C2C1=CC=C1[C@@]2(C)CC[C@@]2(C)[C@@H]3C[C@](C)(C(=O)OCCC(C)C)CC[C@]3(C)CC[C@]12C
- CC50 at 48 h [1]: 1500 nM
- Ratio CC50/IC50 [2]: 1.4
- IC50 [3]: 1090 nM

Structure (SMILES): CC1=C(O)C(=O)C=C2C1=CC=C1[C@@]2(C)CC[C@@]2(C)[C@@H]3C[C@](C)(C(=O)OCCCl)CC[C@]3(C)CC[C@]12C
- CC50 at 48 h [1]: 1100 nM
- Ratio CC50/IC50 [2]: 1.4
- IC50 [3]: 771 nM

Structure (SMILES): COCCCOC(=O)[C@]1(C)CC[C@]2(C)CC[C@]3(C)C4=CC=C5C(=CC(=O)C(O)=C5C)[C@]4(C)CC[C@@]3(C)[C@@H]2C1
- CC50 at 48 h [1]: 1700 nM
- Ratio CC50/IC50 [2]: 1.7
- IC50 [3]: 994 nM

Structure (SMILES): CCCOC(=O)[C@]1(C)CC[C@]2(C)CC[C@]3(C)C4=CC=C5C(=CC(=O)C(O)=C5C)[C@]4(C)CC[C@@]3(C)[C@@H]2C1
- CC50 at 48 h [1]: 1200 nM
- Ratio CC50/IC50 [2]: 1.3
- IC50 [3]: 924 nM

Structure (SMILES): C#CCOC(=O)[C@]1(C)CC[C@]2(C)CC[C@]3(C)C4=C[C@@H](c5c[nH]c6c(C)cccc56)c5c(cc(OC(C)=O)c(OC(C)=O)c5C)[C@]4(C)CC[C@@]3(C)[C@@H]2C1
- CC50 at 48 h [1]: ≥ 10000 nM
- IC50 [3]: ≥ 10000 nM

Structure (SMILES): C#CCOC(=O)[C@]1(C)CC[C@]2(C)CC[C@]3(C)C4=C[C@@H](c5c[nH]c6ccc(F)cc56)c5c(cc(OC(C)=O)c(OC(C)=O)c5C)[C@]4(C)CC[C@@]3(C)[C@@H]2C1
- CC50 at 48 h [1]: 5600 nM
- IC50 [3]: ≥ 10000 nM

Structure (SMILES): C#CCNC(=O)[C@]1(C)CC[C@]2(C)CC[C@]3(C)C4=CC=C5C(=CC(=O)C(O)=C5C)[C@]4(C)CC[C@@]3(C)[C@@H]2C1
- CC50 at 48 h [1]: 1400 nM
- Ratio CC50/IC50 [2]: 16.4
- IC50 [3]: 112 nM

Structure (SMILES): C#CCOC(=O)[C@]1(C)CC[C@]2(C)CC[C@]3(C)C4=C[C@@H](c5c[nH]c6ccc(OC)cc56)c5c(cc(OC(C)=O)c(OC(C)=O)c5C)[C@]4(C)CC[C@@]3(C)[C@@H]2C1
- CC50 at 48 h [1]: ≥ 10000 nM
- IC50 [3]: ≥ 10000 nM

Structure (SMILES): CCNC(=O)[C@]1(C)CC[C@]2(C)CC[C@]3(C)C4=CC=C5C(=CC(=O)C(O)=C5C)[C@]4(C)CC[C@@]3(C)[C@@H]2C1
- CC50 at 48 h [1]: 1100 nM
- Ratio CC50/IC50 [2]: 34.6
- IC50 [3]: 31 nM

Structure (SMILES): CC1=C(O)C(=O)C=C2C1=CC=C1[C@@]2(C)CC[C@@]2(C)[C@@H]3C[C@](C)(C(=O)O)CC[C@]3(C)CC[C@]12C [CELASTROL]
- CC50 at 48 h [1]: 100 nM
- Ratio CC50/IC50 [2]: 1.5
- IC50 [3]: 83 nM

Structure (SMILES): CC1=C(O)C(=O)C=C2C1=CC=C1[C@@]2(C)CC[C@@]2(C)[C@@H]3C[C@](C)(C(=O)OCCBr)CC[C@]3(C)CC[C@]12C
- CC50 at 48 h [1]: 1100 nM
- Ratio CC50/IC50 [2]: 1.6
- IC50 [3]: 721 nM

Structure (SMILES): CC1=C(O)C(=O)C=C2C1=CC=C1[C@@]2(C)CC[C@@]2(C)[C@@H]3C[C@](C)(C(=O)OCc4cccc(C)c4)CC[C@]3(C)CC[C@]12C
- CC50 at 48 h [1]: 1900 nM
- IC50 [3]: 1600 nM

Structure (SMILES): C#CCOC(=O)[C@]1(C)CC[C@]2(C)CC[C@]3(C)C4=C[C@@H](c5c[nH]c6cc(F)ccc56)c5c(cc(OC(C)=O)c(OC(C)=O)c5C)[C@]4(C)CC[C@@]3(C)[C@@H]2C1
- CC50 at 48 h [1]: ≥ 10000 nM
- IC50 [3]: ≥ 10000 nM

Structure (SMILES): C#CCOC(=O)[C@]1(C)CC[C@]2(C)CC[C@]3(C)C4=C[C@@H](c5c[nH]c6ccc(Br)cc56)c5c(cc(OC(C)=O)c(OC(C)=O)c5C)[C@]4(C)CC[C@@]3(C)[C@@H]2C1
- CC50 at 48 h [1]: ≥ 10000 nM
- IC50 [3]: ≥ 10000 nM
